Measured values taken from patent publication US20260118357A1, “TETRA-FUNCTIONAL CHEMICAL PROBE AND METHOD FOR IDENTIFYING TARGET MEMBRANE PROTEIN FROM LIVING CELL OR LIVING TISSUE BY USING SAID PROBE” (priority 2019, published 2026).

Legend:
Format in all cases: cell-based
[1] = tested on: GABA receptor subunits (Gabra1, Gabra2, Gabra5, Gabrg2); assay: Isolation and detection of target molecule from living tissue (brain slices) using the probe, LC-MS; settings: DBA/2CrSlc mouse brain slices, CPF-202 302 nm UV 1 minute, CPF-242 365 nm UV 15 minutes, FIGS. 3 and 4
Description: (§1) A DBA/2CrSlc mouse was anesthetized by isoflurane inhalation and then decapitated, and the brain was quickly removed. The removed brain was immersed in artificial cerebrospinal fluid (ACSF) at 0° C. for 60 seconds while being continuously bubbled with a gas mixture (95% O2, 5% CO2). The olfactory bulb and cerebellum were removed with a scalpel, and the brain was fixed to the stage of a vibrating blade microtome (Leica, VT1200) using instant glue. Sliced sections (thin sections having a thickness of 0.3 mm) of the brain containing the striatum and hippocampus were prepared in ACSF at 0° C. continuously bubbled with the gas mixture. The sliced sections were placed in a dish containing artificial cerebrospinal fluid. An unmodified ligand or DMSO was added, and the dish was allowed to stand at room temperature for 5 minutes. Subsequently, compound (CPF-224) produced in Production Example 10 or compound (CPF-202) produced in Production Example 8 was added, and the dish was allowed to stand at room temperature for 30 minutes. The solution was removed, and the sliced sections were irradiated with UV light (in the cases of CPF-224 and CPF-202, 302 nm UV light for 1 minute; in the case of CPF242, 365 nm UV light for 15 minutes). The sliced sections were washed and collected with PBS, and the supernatant was removed by centrifugation (3000×g, 4° C., 5 minutes). The obtained pellets were analyzed by the same method as in Test Example 1. The analysis was performed in two independent tests, and the results can be expressed as a ratio relative to those in the group treated with the unmodified ligand.

[2] = tested on: AMPA-type glutamate receptors (Gria1, Gria2, Gria3, Gria4); assay: as above; settings: DBA/2CrSlc mouse brain slices, 302 nm UV 1 minute, two independent tests, FIG. 2
Description: as §1

[3] = target: T1, human dopamine receptor D2 (DRD2) (Homo sapiens, UniProt P14416); assay: Isolation and detection of target molecule from living cells using the probe (UV crosslinking, streptavidin enrichment, LC-MS); settings: CHO-K1 cells stably expressing human DRD2; 302 nm UV 1 minute; LC-MS LFQ; two independent tests; FIG. 1
T1 construct: expressed in transfected cells; host or cells: CHO-K1
T1 sequence (P14416 whole entry): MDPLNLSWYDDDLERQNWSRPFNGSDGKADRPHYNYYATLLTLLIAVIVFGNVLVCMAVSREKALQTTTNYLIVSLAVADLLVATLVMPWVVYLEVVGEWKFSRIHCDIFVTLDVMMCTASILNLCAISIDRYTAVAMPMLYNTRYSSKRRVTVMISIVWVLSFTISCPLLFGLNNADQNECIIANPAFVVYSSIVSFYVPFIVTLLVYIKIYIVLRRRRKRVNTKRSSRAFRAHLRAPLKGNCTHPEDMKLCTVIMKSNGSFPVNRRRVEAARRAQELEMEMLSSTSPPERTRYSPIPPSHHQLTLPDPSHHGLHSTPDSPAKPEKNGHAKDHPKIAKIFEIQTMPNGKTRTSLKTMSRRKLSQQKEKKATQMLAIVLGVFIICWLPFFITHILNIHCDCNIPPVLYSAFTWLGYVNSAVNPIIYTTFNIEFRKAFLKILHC
Description: CHO-K1 cells stably expressing human dopamine receptor D2 (DRD2) were cultured on a 10-cm plate until they became confluent.
The cells were washed with a medium, and the medium was replaced with a medium containing DMSO or an unmodified ligand, followed by a reaction for 30 minutes. Subsequently, the medium was discarded and replaced with a medium containing compound (CPP-127) synthesized in Production Example 12, and the cells were allowed to stand at 37° C. for 30 minutes. The medium was discarded, and the cells were washed with PBS. PBS (1 ml) was added to the cells on the plate, and then the cells were irradiated with 302 nm UV light for 1 minute using a UV crosslinker. The cells were collected with a cell scraper after UV irradiation, and the collected cell pellets were cryopreserved at −80° C.
The cryopreserved cells were suspended in 50 mM Tris Homogenate Buffer (pH 7.4, 2.5 mM EDTA, 5 mM MgCl2, 320 mM sucrose) and homogenized using a sonicator. […]
The obtained tryptic digest was desalted and purified, and protein analysis was performed by LC-MS. […] A full scan MS spectrum was acquired in the m/z range of 380 to 1600, and a product ion spectrum was measured in data dependent acquisition mode. The data obtained by LC-MS were analyzed by Proteome Discoverer 2.2 analysis software (PD 2.2, Thermo Fisher Scientific). […]

| SMILES | detection of GABA receptor subunits compared with the group treated with the unmodified ligand [1] | further results |
| --- | --- | --- |
| CC1(C)CC(=O)C(=C(CCOCCOCCOCCOCCNC(=O)CCCC[C@@H]2SC[C@@H]3NC(=O)N[C@@H]32)NCCCC(=O)Nc2ccc(-n3nnc(C(=O)NCCCN4C(=O)CN=C(c5ccccc5)c5cc(Cl)ccc54)n3)cc2)C(=O)C1 [CPF-202] | specifically collected |  |
| CC1(C)CC(=O)C(=C(CCOCCOCCOCCOCCNC(=O)CCCC[C@@H]2SC[C@@H]3NC(=O)N[C@@H]32)NCCCC(=O)Nc2ccc(-n3nnc(C(=O)NCc4ccn(-c5cc6c(cc5C(F)(F)F)[nH]c(=O)c(=O)n6CC(=O)O)c4)n3)cc2)C(=O)C1 [CPF-224] |  | detection of AMPA-type glutamate receptors compared with the group treated with the unmodified ligand [2]: specifically collected |
| CC1(C)CC(=O)C(=C(CCOCCOCCOCCOCCNC(=O)CCCC[C@@H]2SC[C@@H]3NC(=O)N[C@@H]32)NCCCCCNC(=O)CCC2(CCC(=O)NCCCN3C(=O)CN=C(c4ccccc4)c4cc(Cl)ccc43)N=N2)C(=O)C1 [CPF-242] | specifically collected |  |
| CC1(C)CC(=O)C(=C(CCOCCOCCOCCOCCNC(=O)CCCC[C@@H]2SC[C@@H]3NC(=O)N[C@@H]32)NCCCC(=O)Nc2ccc(-n3nnc(C(=O)NCCCCC(=O)NCCCN4CCc5ccc(OCCCN6CCN(c7cccc8sccc78)CC6)cc5C4=O)n3)cc2)C(=O)C1 [CPP-127] |  | detection of dopamine receptor D2 compared with the group treated with the unmodified ligand [3]: specifically collected |
